Data on 2 molecules can be found in article PMC5489165, “Identification of benzazole compounds that induce HIV-1 transcription” (PLoS ONE, 2017).

In one data set the test system is HIV-1 RNA in ACH-2 cells. The experiment in a line: HIV activation assay in ACH-2 model of latency (qRT-PCR). Format: cell-based. Conditions: 24 h; for Induction of HIV-1 transcription in ACH-2 cells (in words): 30 μM, qRT-PCR (Fig 3); for EC10X, ACH-2: concentration for 10-fold increase in HIV-1 RNA by qRT-PCR. The procedure: ACH-2 cells were maintained in RPMI-1640 medium without phenol red and with 10% FBS at 37°C in a 5% CO2 atmosphere. Cells were plated at 5000/well in 96-well round-bottom plated and test compounds were added in a final concentration of 0.5% DMSO, in duplicate. Cells were incubated for 24 h at 37°C, 5% CO2, then pelleted at 2000 × g for 5 min followed by washing in 0.1 ml PBS. RNA was isolated using Invitrogen PureLink 96 RNA Purification Kit with vacuum manifold per the manufacturer’s instructions, including DNase I treatment. HIV-1 transcripts were detected using TaqMan® RNA-to-CT™ 1-step kit (Applied Biosystems, Foster City, CA) and primers/probe specific to gag (SK38 forward: 5ʹ-[…]-3ʹ; SK39 reverse: 5ʹ-[…]-3ʹ; SK19 probe: 5ʹ-6FAM […] TAMRA-3ʹ) or tat (forward: 5ʹ-[…]-3ʹ; reverse: 5ʹ-[…]-3ʹ; probe: 5ʹ-6FAM […]-3ʹ). GAPDH RNA was monitored in all assays as an endogenous control for selectivity using a pre-developed TaqMan assay reagent (Applied Biosystems, Foster City, CA). RNA was quantified on an Applied Biosystems 7900HT. PCR replicates were performed for each biological replicate. Viral RNA expression was normalized to GAPDH RNA and data are expressed as the change from vehicle-only control wells.
(In general: Real-time PCR tracks product formation cycle by cycle.)

The next data set deals with Caco-2 cells. The experiment in a line: Caco-2 assay. Type of data set: in vitro ADME, human. Conditions: 10 μM, 1 h, top to bottom chamber. Here is the method: Caco-2 cells obtained from ATCC were plated on filters of a 24-well Boyden chamber and allowed to replicate for five days. Prior to initiating a study, the integrity of the cell layer was assessed by measuring the transepithelial electrical resistance (TEER) values. […] After 1h, medium was removed from the bottom chamber. After completion of the assay, the integrity of the cell layer was measured by transfer of the fluorescent dye, Lucifer yellow, across the cell layer. Samples taken from the apical chamber at the start of the study and from the basal chamber at the end of the study were assessed for drug levels using LC-MS/MS technology and used to calculate the apparent permeability (Papp).

Data set [1] in a line: Microsome assay, human liver microsomes. Type of data set: in vitro ADME. Here is the method:
Human and mouse liver microsomes were obtained from XenoTech, LLC (Kansas City, KS). The reaction mixture was composed of liver microsomes (0.5 mg/mL), 20 mM Tris-HCl pH 7.4, 2.5 mM MgCl2, and an NADPH generating system (0.1 mM NADP, 1.2 mM glucose-6-phosphate and 0.3 units/ml glucose-6-phophate dehydrogenase). […] Test compounds were added to the microsome reaction and loss of parent molecule was monitored after 1 h by LC/MS/MS.
Background: Microsomes from liver hold many membrane-bound enzymes, among them those of drug oxidation.

Data set [2] relates to HeLa nuclear extracts, HDAC1, HDAC2, HDAC3, HDAC8. As to the kind of experiment: HDAC inhibition assay (fluorometric). Conditions: 10 μM. Type of data set: biochemical. Here is the method: HDAC inhibition was determined using HDAC Fluorometric Activity Assay/Drug Discovery Kit (BIOMOL International, Inc.) according to the manufacturer’s recommendations. HeLa cell nuclear extracts and purified HDACs 1, 2, 3, and 8 were obtained from BIOMOL. Briefly, HDAC inhibitors and test compounds were diluted to 5× concentration in assay buffer in a white, flat-bottom 96-well plate. HDAC samples (purified HDAC or HeLa nuclear extract) were diluted to the desired concentration in assay buffer and added to each well. HeLa extract was employed at a 150-fold dilution, while individual HDACs were tested at 0.3–9 μg/ml. Fluor de Lys™ substrate was diluted to 2× concentration in assay buffer and the HDAC reaction was initiated by addition of substrate to each well followed by incubation for 60 min at room temperature. A final concentration of 0.4% DMSO and 50 μM Fluor de Lys™ substrate was present in all samples. Samples with no enzyme were used as blanks and vehicle-only samples were used as negative controls. HDAC reactions were quenched by adding Fluor de Lys™ developer containing 2 μM trichostatin A. Plates were incubated at room temperature for 15 min prior to reading fluorescence for 0.1 s with an excitation wavelength of 360 nm and emission of 460 nm using a 5 nm slit on a Cary Eclipse Fluorescence Spectrophotometer (Varian, Inc.). […]

The nature of data set [3]: Cytotoxicity assay in stimulated PBMCs (ATP, CellTiter-Glo). Conditions: PBMCs stimulated with PHA and IL-2, ATP quantification. Format: cell-based. The procedure:
(§1) SupT1 cells were plated at 100,000 per well in 96-well, white-walled plates with serial dilutions of test compound in a total volume of 100 μl RPMI-1640 medium containing 10% FBS and 0.5% DMSO. PBMCs were plated similarly at 50,000 cells/well and stimulated by addition of 40 μg/ml PHA and 80 ng/ml interleukin-2 (IL-2). Cells were incubated for 72 h at 37°C, 5% CO2. ATP was quantified using the CellTiter-Glo Luminescent Cell Viability Assay (Promega, Madison, WI) on a ViewLux microplate imager (Perkin Elmer, Waltham, MA). Percent cytotoxicity was determined relative to vehicle-only treated wells.
(Cellular ATP, detected with luciferase, serves as a proxy for viable cell number.)

Data set [4] in a line: Cytotoxicity assay in SupT1 cells (ATP, CellTiter-Glo). Conditions: human; for selectivity ratio at 72 h: read-out: Selective window, CC50 versus EC2X. Type of data set: cell-based. The procedure:
as §1

Data set [5] is described as follows: Protein binding, mouse plasma (ultrafiltration). Conditions: mouse, plasma, pH 7.4. Type of data set: in vitro ADME. Here is the method: Binding of test compound to plasma proteins was estimated by incubation of test compounds with mouse or human plasma. Human plasma was obtained from BioreclamationIVT (Westbury, NY). […] After a 15 min incubation at 37°C, triplicate aliquots of the incubation mixtures were transferred to a Millipore Multiscreen Ultracel-10 filter plate (10 kDa molecular mass cut off, EMD Millipore, Billerica, MA). The plate was centrifuged for 60 min at 3000 × g and 37°C. After centrifugation, aliquots of both the ultrafiltrates as well as the incubation mixtures prior to ultrafiltration were analyzed by LC-MS/MS to quantify the concentrations of test compound and reference compounds.

Where [6] appears, read: SupT1 cells, ATP quantification, 72 h, read-out: CC50, SupT1.

The structures appear in SMILES notation. Where two headings read alike, the source gives them in different places. Where only a bound is given, the exact number is not on record here.

Consider `Nc1ccc2[nH]c(-c3ccc(-c4nc5cc(N)ccc5o4)cc3)nc2c1` [Compound 1, 2-(4-(5-amino-1H-benzimidazol-2-yl)phenyl)benzoxazol-5-amine], for which the “Induction of HIV-1 transcription in ACH-2 cells (in words)” value with HIV-1 RNA in ACH-2 cells is reported as “induced HIV-1 transcription”. Moreover, the “EC10X, ACH-2” value in the data set with HIV-1 RNA in ACH-2 cells is 0.39 ± 0.12 µM. Moreover, the “Caco-2 Papp” value with Caco-2 cells is on record as 38 10^−6 cm/s; in the data set on Caco-2 cells (listed as compound 1), 4.8 10^−6 cm/s. For the same molecule, the “HLM stability (% loss of parent compound at 1 h)” value in data set [1] stood at 57%. In data set [2], the “HDAC inhibitory activity (in words)” value is recorded as “no HDAC inhibitory activity”. Also, the CC50 (commonly the concentration giving 50% cytotoxicity) at 72 h in data set [3] was 18 ± 6.8 µM; in data set [4] (setting [6]), 5.2 ± 1.1 µM; in data set [4] (T cells (SupT1) and PBMCs, read-out: CC50 across cytotoxicity assays), 5 to 18 µM. Besides, the selectivity ratio at 72 h in data set [4] (SupT1 cells, with regards to respective EC2X (SEAP reporter)) was at least 3. The fraction unbound (as a rule, the share of the substance not bound to proteins or other matrix) at 15 min, 10 μM in data set [5] is under 0.03.
With `Nc1ccc2[nH]c(-c3ccc(-c4nc5ccc(N)cc5o4)cc3)nc2c1` [Compound 2], in the data set on HIV-1 RNA in ACH-2 cells, the “Induction of HIV-1 transcription in ACH-2 cells (in words)” value is given as “induced HIV-1 transcription”. Also, the “EC10X, ACH-2” value with HIV-1 RNA in ACH-2 cells was 0.97 ± 0.50 µM. Further, the figures for the “Caco-2 Papp” value in the data set on Caco-2 cells and with Caco-2 cells (listed as compound 2) were 4.8 10^−6 cm/s and 38 10^−6 cm/s, respectively. Moreover, the “HLM stability (% loss of parent compound at 1 h)” value in data set [1] is recorded as 61%. Further, the “HDAC inhibitory activity (in words)” value in data set [2] is listed as “no HDAC inhibitory activity”. For the same molecule, the 50% cytotoxic concentration (CC50) at 72 h in data set [3] and in data set [4] (setting [6]) was over 100 µM in each case. In data set [4] (SupT1 cells), the selectivity ratio at 72 h is at least 3. The molecule further registered a fraction unbound at 15 min, 10 μM in data set [5] of under 0.025.
